Results from PubChem BioAssay AID2060910 (Molecular Pharmacology Branch, DTP, NCI, 2025).
pIC50: −log10 of the molar value. Values belong to the molecule of their own block, whether it stands above or below them.

Test system: 242566-281-R-J2-PDC complex spheroid viability
Test: Anticancer human tumor 242566-281-R-J2-PDC patient-derived pancreatic carcinoma cell line growth inhibition [RAS]
Settings: for pIC50: curve of first compound; for viability, T/C: stronger effect = lower value
Method in brief: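 Multi-cell-type spheroids: tumor cells plus HUVEC endothelial cells and mesenchymal stem cells. RAS-pathway inhibitors were combined with targeted agents, each dosed in half-log steps down from clinical Cmax, or from 10 microM when Cmax was unknown.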

[1] = second compound 0.000949 µM, first compound 0.00316 µM
[2] = second compound 0.000949 µM, first compound 0.01 µM
[3] = second compound 0.000949 µM, first compound 0.0316 µM
[4] = second compound 0.000949 µM, first compound 0.1 µM
[5] = second compound 0.000949 µM, first compound 0.316 µM
[6] = second compound 0.000949 µM, first compound 1 µM
[7] = second compound 0.003 µM, first compound 0.00316 µM
[8] = second compound 0.003 µM, first compound 0.01 µM
[9] = second compound 0.003 µM, first compound 0.0316 µM
[10] = second compound 0.003 µM, first compound 0.1 µM
[11] = second compound 0.003 µM, first compound 0.316 µM
[12] = second compound 0.003 µM, first compound 1 µM
[13] = second compound 0.00949 µM, first compound 0.00316 µM
[14] = second compound 0.00949 µM, first compound 0.01 µM
[15] = second compound 0.00949 µM, first compound 0.0316 µM
[16] = second compound 0.00949 µM, first compound 0.1 µM
[17] = second compound 0.00949 µM, first compound 0.316 µM
[18] = second compound 0.00949 µM, first compound 1 µM
[19] = second compound 0.03 µM, first compound 0.00316 µM
[20] = second compound 0.03 µM, first compound 0.01 µM
[21] = second compound 0.03 µM, first compound 0.0316 µM
[22] = second compound 0.03 µM, first compound 0.1 µM
[23] = second compound 0.03 µM, first compound 0.316 µM
[24] = second compound 0.03 µM, first compound 1 µM
[25] = second compound 0.0949 µM, first compound 0.00316 µM
[26] = second compound 0.0949 µM, first compound 0.01 µM
[27] = second compound 0.0949 µM, first compound 0.0316 µM
[28] = second compound 0.0949 µM, first compound 0.1 µM
[29] = second compound 0.0949 µM, first compound 0.316 µM
[30] = second compound 0.0949 µM, first compound 1 µM
[31] = second compound 0.3 µM, first compound 0.00316 µM
[32] = second compound 0.3 µM, first compound 0.01 µM
[33] = second compound 0.3 µM, first compound 0.0316 µM
[34] = second compound 0.3 µM, first compound 0.1 µM
[35] = second compound 0.3 µM, first compound 0.316 µM
[36] = second compound 0.3 µM, first compound 1 µM
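Further: spheroids exposed to compound for 7 days before readout.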
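Wherever viability, T/C is given: 100% = DMSO vehicle control wells.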

pIC50 (second compound 0.000949 µM): 7.45
pIC50 (second compound 0.003 µM): 7.91
pIC50 (second compound 0.00949 µM): > 8.50
pIC50 (second compound 0.03 µM): > 8.50
pIC50 (second compound 0.0949 µM): > 8.50
pIC50 (second compound 0.3 µM): > 8.50
Compound: O=C(c1ccc(F)c(F)c1Nc1ccc(I)cc1F)N1CC(O)([C@@H]2CCCCN2)C1 + CCn1c(-c2cc(N3CCN(C)CC3)cnc2C(C)OC)c2c3cc(ccc31)-c1csc(n1)CC(NC(=O)C1CC1C)C(=O)N1CCCC(N1)C(=O)OCC(C)(C)C2
viability, T/C [1]: 89.8%
viability, T/C [2]: 71.1%
viability, T/C [3]: 44.3%
viability, T/C [4]: 42.3%
viability, T/C [5]: 29%
viability, T/C [6]: 16.6%
viability, T/C [7]: 72.4%
viability, T/C [8]: 47.5%
viability, T/C [9]: 39.8%
viability, T/C [10]: 32.4%
viability, T/C [11]: 23.1%
viability, T/C [12]: 15.4%
viability, T/C [13]: 39.9%
viability, T/C [14]: 30.8%
viability, T/C [15]: 30.6%
viability, T/C [16]: 21.9%
viability, T/C [17]: 15.2%
viability, T/C [18]: 16.2%
viability, T/C [19]: 24.9%
viability, T/C [20]: 21.4%
viability, T/C [21]: 19.8%
viability, T/C [22]: 18%
viability, T/C [23]: 14.5%
viability, T/C [24]: 14%
viability, T/C [25]: 21.9%
viability, T/C [26]: 17.8%
viability, T/C [27]: 17.6%
viability, T/C [28]: 14.1%
viability, T/C [29]: 11.2%
viability, T/C [30]: 12.3%
viability, T/C [31]: 17.4%
viability, T/C [32]: 16.4%
viability, T/C [33]: 13.3%
viability, T/C [34]: 14.1%
viability, T/C [35]: 10.9%
viability, T/C [36]: 11.3%

pIC50 (second compound 0.000949 µM): 6.49
pIC50 (second compound 0.003 µM): 7.15
pIC50 (second compound 0.00949 µM): > 8.50
pIC50 (second compound 0.03 µM): > 8.50
pIC50 (second compound 0.0949 µM): > 8.50
pIC50 (second compound 0.3 µM): > 8.50
Compound: C=CC(=O)Nc1cc(Nc2nccc(-c3cn(C)c4ccccc34)n2)c(OC)cc1N(C)CCN(C)C + CCn1c(-c2cc(N3CCN(C)CC3)cnc2C(C)OC)c2c3cc(ccc31)-c1csc(n1)CC(NC(=O)C1CC1C)C(=O)N1CCCC(N1)C(=O)OCC(C)(C)C2
viability, T/C [1]: 90.9%
viability, T/C [2]: 90%
viability, T/C [3]: 61.8%
viability, T/C [4]: 75.8%
viability, T/C [5]: 51.8%
viability, T/C [6]: 25.3%
viability, T/C [7]: 76%
viability, T/C [8]: 61.4%
viability, T/C [9]: 54.9%
viability, T/C [10]: 52.2%
viability, T/C [11]: 35.2%
viability, T/C [12]: 19%
viability, T/C [13]: 48.4%
viability, T/C [14]: 40.9%
viability, T/C [15]: 41.2%
viability, T/C [16]: 30.7%
viability, T/C [17]: 21.2%
viability, T/C [18]: 15.3%
viability, T/C [19]: 31.3%
viability, T/C [20]: 30.7%
viability, T/C [21]: 24%
viability, T/C [22]: 22%
viability, T/C [23]: 14.8%
viability, T/C [24]: 16.7%
viability, T/C [25]: 21.2%
viability, T/C [26]: 20.6%
viability, T/C [27]: 20.1%
viability, T/C [28]: 18.1%
viability, T/C [29]: 13%
viability, T/C [30]: 15.9%
viability, T/C [31]: 18.6%
viability, T/C [32]: 18.2%
viability, T/C [33]: 15.7%
viability, T/C [34]: 14%
viability, T/C [35]: 14.6%
viability, T/C [36]: 14.9%
